Results as given in PubChem BioAssay (NCI).
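Five compound concentrations were applied to cells in 96-well plates for 48 hours; endpoints were derived by simple linear interpolation of the resulting dose-response curve. The concentration for 50% growth inhibition is given as GI50. TGI marks complete inhibition of growth.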

How the values were obtained:
Experiment in all cases: NCI anticancer screen, dose series, 48 h
U251 CNS = test system: U251 CNS
NCI-H226 lung = test system: NCI-H226 lung
SF-539 CNS = test system: SF-539 CNS
K-562 leukemia = test system: K-562 leukemia
UO-31 renal = test system: UO-31 renal
SNB-75 CNS = test system: SNB-75 CNS
SR leukemia = test system: SR leukemia
HT29 colon = test system: HT29 colon
OVCAR-8 ovarian = test system: OVCAR-8 ovarian
PC-3 prostate = test system: PC-3 prostate

Structure (SMILES) | TGI (U251 CNS) | TGI (NCI-H226 lung) | TGI (SF-539 CNS) | TGI (K-562 leukemia) | TGI (UO-31 renal) | TGI (SNB-75 CNS) | TGI (SR leukemia) [µM] | TGI (HT29 colon) | TGI (OVCAR-8 ovarian) | GI50 (NCI-H226 lung) | GI50 (K-562 leukemia) | GI50 (UO-31 renal) | GI50 (SNB-75 CNS) | GI50 (SR leukemia) [µM] | GI50 (OVCAR-8 ovarian) | GI50 (U251 CNS) | GI50 (PC-3 prostate) | TGI (PC-3 prostate) | GI50 (SF-539 CNS) | GI50 (HT29 colon)
CCOc1cc[n+](C(=C=[N-])C#N)cc1 | > 100 µM | > 100 µM | > 100 µM | > 100 µM | > 100 µM | > 100 µM | > 100 | > 100 µM | > 100 µM | – | – | – | – | – | – | – | – | – | – | –
OCC(O)C(OC1OC(CO)C(O)C(O)C1O)c1nn(-c2ccc(Cl)cc2)c2nc3cc(Cl)ccc3nc12 (centres undefined) | > 100 µM | – | > 100 µM | > 100 µM | > 100 µM | > 100 µM | > 100 | > 100 µM | > 100 µM | – | – | – | – | – | – | – | – | – | – | –
O=C(Nc1ccc(N2CCNCC2)cn1)c1[nH]ncc1Nc1ncnc2sc3c(c12)CCC3 | – | 67.2 µM | – | 0.498 µM | 3.71 µM | 4.04 µM | 0.872 | – | 5 µM | 20 µM | 0.207 µM | 1.58 µM | 1.6 µM | 0.246 | 2.17 µM | – | – | – | – | –
Cc1ccc(SSCCCCS(=O)O)cc1 | 39.2 µM | – | 38.1 µM | > 100 µM | 39.8 µM | > 100 µM | – | 53.7 µM | – | – | – | – | – | – | – | – | – | – | – | –
CC1SC(c2cccc(Cl)c2)N(NC(=O)C(O)c2ccccc2)C1=O (centres undefined) | > 100 µM | > 100 µM | > 100 µM | > 100 µM | > 100 µM | > 100 µM | – | > 100 µM | > 100 µM | > 100 µM | 69.4 µM | > 100 µM | 79.1 µM | – | > 100 µM | > 100 µM | > 100 µM | > 100 µM | > 100 µM | > 100 µM
CSc1nc(-c2cccc(NC(=O)CCl)c2)c(C#N)c(=O)n1C | 3.07 µM | 44.3 µM | 2.88 µM | > 100 µM | 2.82 µM | 2.47 µM | – | 3.9 µM | > 100 µM | 3.65 µM | 1.28 µM | 1.47 µM | 1.19 µM | – | 2.43 µM | 1.35 µM | 2.4 µM | 8.12 µM | 1.47 µM | 1.68 µM
O=C1OC(=O)C2C1C1C(c3ccccc3)=C(c3ccccc3)C2(O)C2C(=O)OC(=O)C12 (centres undefined) | > 100 µM | > 100 µM | – | > 100 µM | > 100 µM | > 100 µM | > 100 | > 100 µM | > 100 µM | – | – | – | – | – | – | – | – | – | – | –
O=C1CC2OCC=C3CN4CCC56c7ccccc7N1C5C2C3CC46 (centres undefined) (tested in a mixture with another compound) | > 50 µg/mL | > 50 µg/mL | > 50 µg/mL | > 50 µg/mL | > 50 µg/mL | > 50 µg/mL | – | > 50 µg/mL | > 50 µg/mL | > 50 µg/mL | 3.44 µg/mL | > 50 µg/mL | > 50 µg/mL | – | > 50 µg/mL | > 50 µg/mL | > 50 µg/mL | > 50 µg/mL | > 50 µg/mL | > 50 µg/mL
COn1cc(C(=O)N=C(SC)SC)c2ccccc21 | 70.6 µM | 51.2 µM | 43.4 µM | 17.5 µM | > 100 µM | > 100 µM | – | > 100 µM | 55.5 µM | 14.1 µM | 2.29 µM | 40.9 µM | 68.7 µM | – | 18.5 µM | 22.3 µM | 25.1 µM | > 100 µM | 18.7 µM | 42.1 µM
CC1CCC2[C@@H](C)COC3O[C@]4(C)CCC1C32OO4 (some centres undefined) | > 100 µM | > 100 µM | > 100 µM | > 100 µM | > 100 µM | > 100 µM | – | > 100 µM | > 100 µM | – | – | – | – | – | – | – | – | – | – | –
C/C(=N\NS(=O)(=O)c1ccccc1)c1ccc[n+]([O-])n1 | > 100 µM | – | > 100 µM | > 100 µM | > 100 µM | > 100 µM | > 100 | > 100 µM | > 100 µM | – | – | – | – | – | – | – | – | – | – | –
O=C(OCc1ccccc1)c1ccccc1-c1c2ccc(=O)cc-2oc2cc(OCc3ccccc3)ccc12 | 13.9 µM | 32.2 µM | 28.9 µM | > 100 µM | 55.3 µM | – | 18.8 | 55.5 µM | 74 µM | – | – | – | – | – | – | – | – | – | – | –
O=C(N/N=C/c1cccc(O)c1)c1ccc(C(F)(F)F)nc1Nc1cccc(C(F)(F)F)c1 | 6.65 µM | 3.51 µM | 4.03 µM | 2.69 µM | 5.08 µM | 6.03 µM | – | 11.2 µM | 11.3 µM | 1.28 µM | 1.19 µM | 1.59 µM | 1.58 µM | – | 2.12 µM | 1.74 µM | 1.66 µM | 7.67 µM | 1.78 µM | 3.47 µM
Cc1c(C(=O)Nc2ccc(Cl)cc2)nc(N)nc1-c1cccc(Cl)c1 | > 100 µM | > 100 µM | > 100 µM | > 100 µM | > 100 µM | – | > 100 | > 100 µM | > 100 µM | – | – | – | – | – | – | – | – | – | – | –
COC(=O)C1=C(O)C(C(=O)OC)[C@@]2(O)[C@@H](C(=O)OC)C(c3ccccc3Cl)C[C@@H]1[C@@H]2C(=O)OC (some centres undefined) | 15 µM | 15.1 µM | 36.7 µM | > 100 µM | 19.8 µM | – | – | 32.6 µM | 34 µM | 3.77 µM | 3.76 µM | 6.14 µM | – | – | 5.81 µM | 3.76 µM | 5.88 µM | 36.5 µM | 14 µM | 6.28 µM
N#CC12CC3(CCC1CCC1(C2)OCCO1)OCCO3 (centres undefined) | > 100 µM | > 100 µM | > 100 µM | > 100 µM | > 100 µM | > 100 µM | > 100 | – | > 100 µM | – | – | – | – | – | – | – | – | – | – | –
CN(C)c1ccc(/C=N/NC(=O)c2cnc3ccccc3c2)cc1 | > 100 µM | > 100 µM | > 100 µM | > 100 µM | > 100 µM | 50.6 µM | – | – | > 100 µM | – | – | – | – | – | – | – | – | > 100 µM | – | –
CCC12C=CCN3CCC4(C(=C(C(=O)OC)C1)Nc1ccccc14)[C@H]32 (some centres undefined) | – | 86.7 µM | 47.5 µM | 52.5 µM | > 100 µM | 69 µM | 34.8 | 46.8 µM | – | – | – | – | – | – | – | – | – | – | – | –
CC(=O)Nc1ccccc1S(=O)c1ccccc1 (centres undefined) | > 100 µM | > 100 µM | > 100 µM | > 100 µM | > 100 µM | > 100 µM | – | > 100 µM | > 100 µM | – | – | – | – | – | – | – | – | – | – | –
COc1ccc(CNC(=O)c2c(C)n([O-])c3cc(F)c(F)cc3[n+]2=O)cc1 | 25.5 µM | 41 µM | 30.6 µM | 4.05 µM | 26.6 µM | 5.58 µM | – | 16 µM | 15.9 µM | 16.5 µM | 1.93 µM | 12.8 µM | 0.461 µM | – | 3.72 µM | 12.8 µM | 11.7 µM | 23.9 µM | 16.5 µM | 3.91 µM
C=C1CC(CC(=O)C(C)CC2CC(=C)C(=O)O2)OC1=O (centres undefined) | > 100 µM | – | 37.7 µM | 89.6 µM | > 100 µM | > 100 µM | 24.1 | 63.2 µM | > 100 µM | – | – | – | – | – | – | – | – | – | – | –
COc1ccc(S(=O)(=O)N/N=C/CN2C(=O)c3ccccc3C2=O)cc1 | > 100 µM | > 100 µM | > 100 µM | > 100 µM | – | > 100 µM | > 100 | > 100 µM | > 100 µM | – | – | – | – | – | – | – | – | – | – | –
COc1ccc(OC)c(/C=C/C(=O)c2ccc3cc(OC)ccc3c2)c1 | > 50 µM | > 50 µM | > 12.6 µM | > 50 µM | > 15.2 µM | 4.53 µM | – | – | > 11.9 µM | > 50 µM | 6.46 µM | – | 1.78 µM | – | – | 7.19 µM | 6.71 µM | > 50 µM | – | –
CCCCCC/C(CC(=O)CCC(=O)NCCc1ccccc1)=N\NC(=O)c1ccc2ccccc2c1O | > 100 µM | > 100 µM | – | – | > 100 µM | > 100 µM | – | > 100 µM | > 100 µM | – | – | – | – | – | – | – | – | – | – | –
ClCCCN1CCCCC1CCl (centres undefined) | > 100 µM | – | > 100 µM | > 100 µM | > 100 µM | > 100 µM | > 100 | > 100 µM | > 100 µM | – | – | – | – | – | – | – | – | – | – | –
COc1ccc(-c2cc(=O)c3cccnc3[nH]2)cc1 | > 100 µM | > 100 µM | > 100 µM | 88.6 µM | > 100 µM | – | – | 38.4 µM | > 100 µM | – | – | – | – | – | – | 54.1 µM | 31.7 µM | > 100 µM | – | –
N#CC1([N+](=O)[O-])C=C1c1ccccc1 (centres undefined) | > 100 µM | > 100 µM | > 100 µM | 71.5 µM | > 100 µM | – | 70.3 | > 100 µM | > 100 µM | – | – | – | – | – | – | – | – | – | – | –
CC1(C)N=C(N)N=C(N)N1c1ccc(CCC(=O)Nc2cccc(S(=O)(=O)F)c2)cc1 | > 100 µM | > 100 µM | > 100 µM | > 100 µM | > 100 µM | > 100 µM | – | > 100 µM | > 100 µM | > 100 µM | 1.35 µM | 13.2 µM | 5.34 µM | – | 6.46 µM | 4.98 µM | 0.597 µM | > 100 µM | 5.65 µM | 5.62 µM
C[C@H](CCCOS(C)(=O)=O)[C@H]1CC[C@H]2[C@@H]3CC[C@@H]4C[C@H](OS(C)(=O)=O)CC[C@]4(C)[C@H]3CC[C@]12C | – | – | – | – | > 2500 µM | – | – | > 2500 µM | – | 418 µM | – | > 2500 µM | – | – | 582 µM | 356 µM | 852 µM | – | 586 µM | 1920 µM
CCN(CC)c1ccc(N=C2C=CC(=C(C#N)C#N)c3ccccc32)c(C)c1 | 3.44 µM | – | – | 5.47 µM | 6.95 µM | 5.69 µM | – | 24.9 µM | 7.28 µM | – | – | – | – | – | – | – | – | – | – | –
